Source: US20170056380A1, “Systems, Methods, Techniques, and Compounds in Research and Treatment of Portal Hypertension and other Conditions” (priority 2014, published 2017)
“Also recorded” adds a separate entry of the source.

What was measured:
protein kinase B (Akt) = assay: Akt phosphorylation (Ser473) and total Akt by immunoblotting in sinusoidal endothelial cells; type: cell-based, rat
Description: (§1) Cell isolation and culture. Sinusoidal endothelial cells were isolated from male Sprague-Dawley rats (450-500 g) (Harlan, Indianapolis, Ind.). In brief, after in situ perfusion of the liver with 20 mg/100 mg pronase (Roche Molecular Biochemicals, Indianapolis, Ind.), followed by collagenase (Worthington Biochemical, Lakewood, N.J.), dispersed cell suspensions were removed from a layered discontinuous density gradient of 8.2 and 15.6% Accudenz (Accurate Chemical and Scientific, Westbury, N.Y.), further purified by centrifugal elutriation (18 ml/min flow), and were grown in medium containing 20% serum (10% horse/calf). The purity of endothelial cells was documented by their uptake of fluorescently labeled di-l-acetoacetylated low-density lipoprotein as described (21). Only primary sinusoidal endothelial isolates of >95% purity were used for study. Experiments were performed with cells frorrr a minimum three different isolations (for all experiments).
(§2) Immunoblotting, Immunoblotting was performed by using specified primary antibodies, including anti-eNOS antibody (1:1,000; BD Transduction Laboratories, San Jose, Calif.), anti-phospho-eNOS-Ser^1177 (1:1,000; BD Transduction Laboratories or Cell Signaling Technology), anti-phospho-Akt, anti-Akt (Cell Signaling Technology, Beverly, Mass.), and horseradish peroxidase-conjugated secondary antibody. Specific signals were visualized using enhanced chemiluminescence as per the manufacturer's instructions and were scanned and quantitated with standard software.
Animal model of liver injury and portal hypedension. Liver injury and portal hypertension were induced by performing bile duct ligation in 450- to 500-gram male retired breeder Sprague-Dawley rats as described in Liu and 20- to 25-gram male BALB/c mice. Briefly, bile duct ligation was performed by surgical isolation and ligation of the common bile duct. […] A calibrated low-pressure transducer (Digi-Med, Louisville, Ky.) was connected to the portal vein catheter, and portal pressure was recorded continuously using the Digi-Med Integrator 200 System (Digi-bled).

Erk1/2 = assay: Erk phosphorylation by immunoblotting in sinusoidal endothelial cells; type: cell-based, rat; conditions: 2 h
Description: as §1, with “Only primary sinusoidal endothelial isolates of >95% purity were used for study. Experiments were performed with cells frorrr a minimum three different isolations (for all experiments).” left out
as §2, with “software. […]” for “software.”

[1] = 50 or 100 nM, normal sinusoidal endothelial cells

SMILES: Cc1ncc2c(c1O)COC2c1ccc(Cl)cc1 (centres unmarked) [cicletanine, 3-(4-chlorophenyl)-1,3-dihydro-7-hydroxy-6-methylfuro-(3,4-c) pyridine]
- Akt phosphorylation at Ser473 (protein kinase B (Akt); [1]): increased
- total Akt expression (protein kinase B (Akt); normal sinusoidal endothelial cells): without a change
- Akt phosphorylation (protein kinase B (Akt); sinusoidal endothelial cells injured by bile duct ligation, 2 h): restored Akt phosphorylation to above normal levels
- phosphorylation of Erk (Erk1/2; [1]): increased in a dose-dependent manner; also recorded: robustly induced
- Erk1/2 phosphorylation (Erk1/2; sinusoidal endothelial cells injured by bile duct ligation): increased
